Like-named read-outs stand apart in the source and are kept apart here.
Key:
[1] = molecular target: T1, PKC epsilon (Homo sapiens, UniProt Q02156); experiment: Biochemical assay for PKC epsilon (fluorescence polarization, Protein Kinase C Assay Kit, Red); details: read-out: IC50 μM PKCε
T1 construct: purchased Invitrogen P2282
T1 sequence (Q02156 1-737): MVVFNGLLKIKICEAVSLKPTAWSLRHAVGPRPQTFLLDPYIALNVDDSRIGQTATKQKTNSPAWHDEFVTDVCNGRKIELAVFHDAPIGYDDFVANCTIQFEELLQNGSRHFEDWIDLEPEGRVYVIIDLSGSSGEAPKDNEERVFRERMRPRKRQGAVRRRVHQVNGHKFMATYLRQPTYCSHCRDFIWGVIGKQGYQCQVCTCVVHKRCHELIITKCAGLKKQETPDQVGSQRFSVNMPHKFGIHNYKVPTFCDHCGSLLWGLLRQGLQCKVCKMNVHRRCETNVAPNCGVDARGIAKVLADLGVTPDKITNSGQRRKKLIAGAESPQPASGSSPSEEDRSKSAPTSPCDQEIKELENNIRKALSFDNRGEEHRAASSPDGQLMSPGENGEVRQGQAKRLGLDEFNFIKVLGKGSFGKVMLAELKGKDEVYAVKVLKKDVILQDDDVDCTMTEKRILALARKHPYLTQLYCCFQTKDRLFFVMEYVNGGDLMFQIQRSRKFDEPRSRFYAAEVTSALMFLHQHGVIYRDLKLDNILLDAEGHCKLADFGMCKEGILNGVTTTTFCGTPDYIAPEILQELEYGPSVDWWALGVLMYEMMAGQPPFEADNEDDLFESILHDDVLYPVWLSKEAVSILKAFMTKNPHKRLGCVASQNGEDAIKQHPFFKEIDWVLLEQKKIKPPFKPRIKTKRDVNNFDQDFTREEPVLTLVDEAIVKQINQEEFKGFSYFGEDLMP
Method in brief: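 Read-out was fluorescence-polarization competition between phosphorylated substrate and a rhodamine PKC tracer for an anti-phosphoserine antibody, added with EDTA stop after an 80 min room-temperature kinase reaction with ATP and protein substrate (Mg2+/Ca2+ buffer). Enzyme (10 ng/ml final) was preincubated with compound for 30 min.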

[2] = molecular target: T2, human ROCKα/ROCKII mix (Homo sapiens, UniProt O75116); experiment: Biochemical assay for ROCK (fluorescence polarization, ROCK IMAP Kit)
T2 construct: purchased Upstate Biotechnology 14-451

[3] = compounds of Formula XIV, Table 3
[4] = Table 2, compounds of Formula XIII

T2 sequence (O75116 11-552 limits assumed): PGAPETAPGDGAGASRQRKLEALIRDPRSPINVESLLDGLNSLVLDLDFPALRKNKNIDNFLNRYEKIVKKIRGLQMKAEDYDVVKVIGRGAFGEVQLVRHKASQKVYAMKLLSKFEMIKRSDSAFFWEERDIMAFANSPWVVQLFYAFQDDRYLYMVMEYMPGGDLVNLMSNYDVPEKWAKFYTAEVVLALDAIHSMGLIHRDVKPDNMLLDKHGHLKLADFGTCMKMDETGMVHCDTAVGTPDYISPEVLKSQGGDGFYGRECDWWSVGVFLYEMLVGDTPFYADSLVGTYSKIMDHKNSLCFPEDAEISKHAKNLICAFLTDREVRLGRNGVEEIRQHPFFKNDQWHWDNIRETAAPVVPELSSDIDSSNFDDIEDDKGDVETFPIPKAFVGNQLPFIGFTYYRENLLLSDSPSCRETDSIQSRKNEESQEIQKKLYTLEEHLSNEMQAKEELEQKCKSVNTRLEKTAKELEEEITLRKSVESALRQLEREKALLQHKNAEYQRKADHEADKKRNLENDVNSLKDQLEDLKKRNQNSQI

| SMILES | IC50 [1, 3] [µM] | IC50 [2, 3] [µM] | other results |
| --- | --- | --- | --- |
| NC(CC(=O)NCCc1ccc(Oc2ccccc2)cc1)c1ccc(C(=O)Nc2ccncc2)cc1 (stereo not drawn) [Compound 292, 4-{1-Amino-2-[2-(4-phenoxy-phenyl)-ethylcarbamoyl]-ethyl}-N-pyridin-4-yl-benzamide] | 0.5 to 5 | 0.05 to 0.5 |  |
| COc1cc(CCNC(=O)CC(N)c2ccc(C(=O)Nc3ccncc3)cc2)cc(OC)c1 (stereo not drawn) [Compound 294, 4-{1-Amino-2-[2-(3,5-dimethoxy-phenyl)-ethylcarbamoyl]-ethyl}-N-pyridin-4-yl-benzamide] | 5 to 50 | 0.05 to 0.5 |  |
| COc1ccc(OC)c(CCNC(=O)CC(N)c2ccc(C(=O)Nc3ccncc3)cc2)c1 (stereo not drawn) [Compound 295, 4-{1-Amino-2-[2-(3,6-dimethoxy-phenyl)-ethylcarbamoyl]-ethyl}-N-pyridin-4-yl-benzamide] | 5 to 50 | 0.05 to 0.5 |  |
| NC(CC(=O)NCCc1ccccc1Cl)c1ccc(C(=O)Nc2ccncc2)cc1 (stereo not drawn) [Compound 297, 4-{1-Amino-2-[2-(2-chloro-phenyl)-ethylcarbamoyl]-ethyl}-N-pyridin-4-yl-benzamide] | 0.5 to 5 | 0.05 to 0.5 |  |
| CC(CNC(=O)CC(N)c1ccc(C(=O)Nc2ccncc2)cc1)c1ccc(Cl)cc1 (stereo not drawn) [Compound 301, 4-{1-Amino-2-[2-(4-chloro-phenyl)-propylcarbamoyl]-ethyl}-N-pyridin-4-yl-benzamide] | 0.05 to 0.5 | 0.05 to 0.5 |  |
| NC(CC(=O)NCCc1ccc(Cl)c(Cl)c1)c1ccc(C(=O)Nc2ccncc2)cc1 (stereo not drawn) [Compound 304] | 0.5 to 5 | 0.05 to 0.5 |  |
| NC(CC(=O)NCCc1ccccc1F)c1ccc(C(=O)Nc2ccncc2)cc1 (stereo not drawn) [Compound 305, 4-{1-Amino-2-[2-(2-fluoro-phenyl)-ethylcarbamoyl]-ethyl}-N-pyridin-4-yl-benzamide] | 0.5 to 5 | 0.05 to 0.5 |  |
| NC(CC(=O)NCCc1ccc(F)cc1)c1ccc(C(=O)Nc2ccncc2)cc1 (stereo not drawn) [Compound 307, 4-{1-amino-2-[2-(4-fluoro-phenyl)-ethylcarbamoyl]-ethyl}-N-pyridin-4-yl-benzamide] | 0.05 to 0.5 | 0.05 to 0.5 |  |
| CC(C)(Cc1ccc(F)cc1)NC(=O)CC(N)c1ccc(C(=O)Nc2ccncc2)cc1 (stereo not drawn) [Compound 308, 4-{1-amino-2-[2-(4-fluoro-phenyl)-1,1-dimethyl-ethylcarbamoyl]-ethyl}-N-pyridin-4-yl-benzamide] | 0.05 to 0.5 | 0.05 to 0.5 |  |
| Cc1ccc2[nH]cc(CCNC(=O)CC(N)c3ccc(C(=O)Nc4ccncc4)cc3)c2c1 (stereo not drawn) [Compound 314, 4-{1-Amino-2-[2-(5-methyl-1H-indol-3-yl)-ethylcarbamoyl]-ethyl}-N-pyridin-4-yl-benzamide] | 0.5 to 5 | 0.05 to 0.5 |  |
| NC(CC(=O)Nc1ccccc1)c1ccc(C(=O)Nc2ccncc2)cc1 (stereo not drawn) [Compound 316] | 0.5 to 5 | 0.05 to 0.5 |  |
| NC(CC(=O)Nc1ccc2[nH]ccc2c1)c1ccc(C(=O)Nc2ccncc2)cc1 (stereo not drawn) [Compound 321, 4-[1-Amino-2-(1H-indol-5-ylcarbamoyl)-ethyl]-N-pyridin-4-yl-benzamide] | 0.5 to 5 | 0.05 to 0.5 |  |
| NC(CC(=O)Nc1ccc2cc[nH]c2c1)c1ccc(C(=O)Nc2ccncc2)cc1 (stereo not drawn) [Compound 322, 4-[1-Amino-2-(1H-indol-6-ylcarbamoyl)-ethyl]-N-pyridin-4-yl-benzamide] | 0.05 to 0.5 | 0.05 to 0.5 |  |
| NC(CC(=O)Nc1cc(-c2ccco2)[nH]n1)c1ccc(C(=O)Nc2ccncc2)cc1 (stereo not drawn) [Compound 323, 4-[1-Amino-2-(5-furan-2-yl-1H-pyrazol-3-ylcarbamoyl)-ethyl]-N-pyridin-4-yl-benzamide] | 0.5 to 5 | 0.05 to 0.5 |  |
| NC(CC(=O)NNC(=O)c1ccco1)c1ccc(C(=O)Nc2ccncc2)cc1 (stereo not drawn) [Compound 325, 4-{1-amino-3[N′-(furan-2-carbonyl)-hydrazino]-3-oxo-propyl}-N-pyridin-4-yl-benzamide] | 0.5 to 5 | 0.05 to 0.5 |  |
| NC(CNC(=O)Nc1ccc(Cl)cc1)c1ccc(C(=O)Nc2ccncc2)cc1 (stereo not drawn) [Compound 326, 4-{1-Amino-2-[3-(4-chloro-phenyl)-ureido]-ethyl}-N-pyridin-4-yl-benzamide] |  |  | IC50 [1]: 0.05 to 0.5 µM; IC50 [2]: 0.05 to 0.5 µM |
| COc1ccc(CC(=O)NCC(N)c2ccc(C(=O)Nc3ccncc3)cc2)cc1F (stereo not drawn) [Compound 327, 4-{1-Amino-2-[2-(3-fluoro-4-methoxy-phenyl)-acetylamino]-ethyl}-N-pyridin-4-yl-benzamide] |  |  | IC50 [1, 4]: 0.5 to 5 µM; IC50 [2, 4]: 0.05 to 0.5 µM |
| COc1ccc(C2(C(=O)NCC(N)c3ccc(C(=O)Nc4ccncc4)cc3)CCCC2)cc1 (stereo not drawn) [Compound 344, 4-(1-Amino-2-{[1-(4-methoxy-phenyl)-cyclopentanecarbonyl]-amino}-ethyl)-N-pyridin-4-yl-benzamide] |  |  | IC50 [1, 4]: 0.05 to 0.5 µM; IC50 [2, 4]: 0.05 to 0.5 µM |
| NC(CNC(=O)C1(c2ccc(Cl)c(Cl)c2)CC1)c1ccc(C(=O)Nc2ccncc2)cc1 (stereo not drawn) [Compound 345, 4-(1-Amino-2-{[1-(3,4-dichloro-phenyl)-cyclopropanecarbonyl]-amino}-ethyl)-N-pyridin-4-yl-benzamide] |  |  | IC50 [1, 4]: 0.05 to 0.5 µM; IC50 [2, 4]: 0.05 to 0.5 µM |
| CC(C)(C(=O)NCC(N)c1ccc(C(=O)Nc2ccncc2)cc1)c1ccsc1 (stereo not drawn) [Compound 346, 4-[1-Amino-2-(2-methyl-2-thiophen-3-yl-propionylamino)-ethyl]-N-pyridin-4-yl-benzamide] |  |  | IC50 [1, 4]: 0.05 to 0.5 µM; IC50 [2, 4]: 0.05 to 0.5 µM |
| NC(CNC(=O)C1(c2ccsc2)CC1)c1ccc(C(=O)Nc2ccncc2)cc1 (stereo not drawn) [Compound 347, 4-{1-Amino-2-[(1-thiophen-3-yl-cyclopropanecarbonyl)-amino]-ethyl}-N-pyridin-4-yl-benzamide] |  |  | IC50 [1, 4]: 0.05 to 0.5 µM; IC50 [2, 4]: 0.05 to 0.5 µM |

Now from value to compound, other results behind:

| IC50 [1, 3] [µM] | IC50 [2, 3] [µM] | SMILES | other results |
| --- | --- | --- | --- |
| 5 to 50 | 0.5 to 5 | COc1ccc(CCNC(=O)CC(N)c2ccc(C(=O)Nc3ccncc3)cc2)cc1OC (stereo not drawn) [Compound 293, 4-{1-Amino-2-[2-(3,4-dimethoxy-phenyl)-ethylcarbamoyl]-ethyl}-N-pyridin-4-yl-benzamide] |  |
| 0.5 to 5 | 0.05 to 0.5 | NC(CC(=O)NCCc1cccc(Cl)c1)c1ccc(C(=O)Nc2ccncc2)cc1 (stereo not drawn) [Compound 298, 4-{1-Amino-2-[2-(3-chloro-phenyl)-ethylcarbamoyl]-ethyl}-N-pyridin-4-yl-benzamide] |  |
| 0.5 to 5 | 0.05 to 0.5 | NC(CC(=O)NCCc1ccc(Cl)cc1)c1ccc(C(=O)Nc2ccncc2)cc1 (stereo not drawn) [Compound 299, 4-{1-Amino-2-[2-(4-chloro-phenyl)-ethylcarbamoyl]-ethyl}-N-pyridin-4-yl-benzamide] |  |
| 0.5 to 5 | 0.05 to 0.5 | CC(Cc1ccc(Cl)cc1)NC(=O)CC(N)c1ccc(C(=O)Nc2ccncc2)cc1 (stereo not drawn) [Compound 300, 4-{1-Amino-2-(2-(4-chloro-phenyl)-1-methyl-ethylcarbamoyl]-ethyl}-N-pyridin-4-yl-benzamide] |  |
| 0.5 to 5 | 0.05 to 0.5 | NC(CC(=O)NCCc1c(Cl)cccc1Cl)c1ccc(C(=O)Nc2ccncc2)cc1 (stereo not drawn) [Compound 302] |  |
| 0.5 to 5 | 0.05 to 0.5 | NC(CC(=O)NCCc1ccc(Cl)cc1Cl)c1ccc(C(=O)Nc2ccncc2)cc1 (stereo not drawn) [Compound 303, 4-{1-Amino-2-[2-(2,4-dichloro-phenyl)-ethylcarbamoyl]-ethyl}-N-pyridin-4-yl-benzamide] |  |
| 5 to 50 | 0.5 to 5 | NC(CC(=O)NCCc1cccc(F)c1)c1ccc(C(=O)Nc2ccncc2)cc1 (stereo not drawn) [Compound 306] |  |
| 0.5 to 5 | 0.05 to 0.5 | NC(CC(=O)NCCc1cccs1)c1ccc(C(=O)Nc2ccncc2)cc1 (stereo not drawn) [Compound 311, 4-[1-amino-2-(2-thiophen-2-yl-ethylcarbamoyl)-ethyl]-N-pyridin-4-yl-benzamide] |  |
| 0.5 to 5 | 0.05 to 0.5 | NC(CC(=O)NCCc1c[nH]c2ccccc12)c1ccc(C(=O)Nc2ccncc2)cc1 (stereo not drawn) [Compound 313, 4-{1-Amino-2-[2-(1H-indol-3-yl)-ethylcarbamoyl]-ethyl}-N-pyridin-4-yl-benzamide] |  |
| 0.5 to 5 | 0.05 to 0.5 | CC(Cc1c[nH]c2ccccc12)NC(=O)CC(N)c1ccc(C(=O)Nc2ccncc2)cc1 (stereo not drawn) [Compound 315, 4-{1-Amino-2-[2-(1H-indol-3-yl)-1-methyl-ethylcarbamoyl]-ethyl}-N-pyridin-4-yl-benzamide] |  |
| 0.5 to 5 | 0.05 to 0.5 | COc1ccc(NC(=O)CC(N)c2ccc(C(=O)Nc3ccncc3)cc2)cc1 (stereo not drawn) [Compound 319, 4-[1-Amino-2-(4-methoxy-phenyl-carbamoyl)-ethyl]-N-pyridin-4-yl-benzamide] |  |
| 0.5 to 5 | 0.05 to 0.5 | NC(CC(=O)Nc1ccc(CO)cc1)c1ccc(C(=O)Nc2ccncc2)cc1 (stereo not drawn) [Compound 320, 4-[1-Amino-2-(4-hydroxymethyl-phenyl-carbamoyl)-ethyl]-N-pyridin-4-yl-benzamide] |  |

Source: patent publication US20100168102A9, “Amide Derivatives as Kinase Inhibitors” (Devgen NV, priority 2005, published 2010)
